Eight molecules from ChEMBL document CHEMBL1201862, “PubChem BioAssay data set” (2004) can be followed below.

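1) Cells in 96-well plates. 2) Compound, 48 h, 5 concentrations. 3) Linear interpolation between surrounding doses. 4) Unreached endpoint = highest concentration. GI50 marks 50% less growth.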 Active and inactive are the calls of the source. Rule as the data show it: active = GI50 up to about 1.1 µM and inactive = higher. Where only a bound is given, the exact number is not on record here.

Holding throughout (test): inhibition of tumour cell growth, NCI panel, 48 h
Assay [1] deals with SNB-19.
Assay [2] deals with UACC-257.
The subject of assay [3] is NCI-H460.
For assay [4], the system named is OVCAR-4.
The test system of assay [5] is HT-29.
In assay [6] the test system is SNB-75.
Assay [7] deals with IGROV-1.
Assay [8] has as its system NCI/ADR-RES.
The subject of assay [9] is RXF 393.
In assay [10] the test system is TK-10.
The subject of assay [11] is HCT-116.
The test system of assay [12] is Malme-3M.
In assay [13] the test system is SW-620.
The subject of assay [14] is A549.
Assay [15] relates to PC-3.
Assay [16] deals with BT-549.
Assay [17] has as its system K562.
Assay [18] relates to OVCAR-8.
Assay [19] concerns HOP-62.
For assay [20], the system named is A498.

In the case of `COc1cc(C2SCC(=O)N2c2ccc(Cl)cc2)cc(I)c1O` (configuration not stated), the GI50 was > 100 µM (inactive) in assay [1]; 11.8 µM (inactive) in assay [2]; 2.74 µM (inactive) in assay [3]; 3.37 µM (inactive) in [4]; > 100 µM (inactive) in assay [5]; > 100 µM (inactive) in [6]. The GI50 in assay [7] is > 100 µM (inactive); in assay [8] it was > 69 µM (inactive); in assay [9] it was > 100 µM (inactive); in [10] it was > 94.6 µM (inactive); in assay [11] it was 18.5 µM (inactive); in [12], > 100 µM (inactive). Moreover, the GI50 in assay [13] was > 100 µM (inactive); in [14] it was 46.7 µM (inactive); in assay [15], > 100 µM (inactive); in assay [16], 48.8 µM (inactive); in assay [17] it was 0.501 µM (active); in assay [18], > 100 µM (inactive).

In the case of `CC(=O)N1CCN(CCCCN2c3ccccc3Sc3cc(N=[N+]=[N-])ccc32)CC1`, the GI50 in assay [1] is 14.5 µM (inactive); in [2] it was 24.5 µM (inactive); in assay [19], 14.3 µM (inactive); in assay [3], 14.1 µM (inactive); in assay [5], 13.6 µM (inactive); in assay [6], 13 µM (inactive). Moreover, the GI50 in [7] was 15.2 µM (inactive); in [8] it was 12.6 µM (inactive); in assay [9], 9.1 µM (inactive); in [10], 17.4 µM (inactive); in assay [11], 13.8 µM (inactive); in [12], 17.1 µM (inactive). For the same molecule, the GI50 in assay [13] is 15.5 µM (inactive); in assay [14], 16.1 µM (inactive); in assay [15], 7 µM (inactive); in assay [16], 17.3 µM (inactive); in [17] it was 8.65 µM (inactive); in assay [18], 15.4 µM (inactive).

As to `C=C(Cl)C(Cl)(CCl)CCC(Br)C(C)(C)Br` (configuration not stated), the GI50 in assay [1], in assay [19], in assay [4], in [5], in assay [6] and in assay [7] was > 10 µM (inactive) throughout. For the same molecule, the GI50 in assay [9], in assay [10], in assay [11], in assay [20], in [13] and in assay [14] was > 10 µM (inactive) throughout. The GI50 in [15], in [16], in assay [17] and in assay [18] was > 10 µM (inactive) each time.

In the case of `N#Cc1ccc(C(O)C(F)(F)c2nc3ccccc3o2)cc1` (configuration not stated), the GI50 in assay [1] is > 100 µM (inactive); in [2], 99.8 µM (inactive); in assay [19], > 100 µM (inactive); in assay [3] it was > 100 µM (inactive); in assay [4], 95.5 µM (inactive); in assay [5], 81.3 µM (inactive). In addition, the GI50 in assay [6] was > 100 µM (inactive); in [7], 95.5 µM (inactive); in assay [8] it was 60.5 µM (inactive); in [9], > 100 µM (inactive); in assay [10], > 100 µM (inactive); in [11], 92.3 µM (inactive). Further, the GI50 in [13] was > 100 µM (inactive); in assay [15], 33.1 µM (inactive); in assay [16], 71.4 µM (inactive); in assay [17], 18.2 µM (inactive); in [18], 98.6 µM (inactive).

Regarding `CCN(C(=O)N[C@@H](CC(C)C)C(=O)NCC(=O)OC)c1ccccc1`, the GI50 in [1] was > 100 µM (inactive); in assay [2], 25.9 µM (inactive); in [19] it was > 100 µM (inactive); in [3], 85.7 µM (inactive); in [4], > 100 µM (inactive); in [5] it was > 100 µM (inactive). In addition, the GI50 was 72.9 µM (inactive) in assay [6]; > 100 µM (inactive) in assay [7]; > 100 µM (inactive) in assay [8]; 54 µM (inactive) in [9]; > 100 µM (inactive) in assay [10]; > 100 µM (inactive) in assay [11]. Further, the GI50 in assay [12] was 18 µM (inactive); in assay [13] it was > 100 µM (inactive); in [14], > 100 µM (inactive); in [15], > 100 µM (inactive); in assay [16], > 100 µM (inactive); in [17], 38.4 µM (inactive). Besides, the GI50 in assay [18] is > 100 µM (inactive).

As to `CN(C)c1n/c(=N/Cc2ccccn2)ss1`, the GI50 was > 10 µM (inactive) in assay [1]; > 10 µM (inactive) in assay [2]; > 10 µM (inactive) in assay [19]; > 10 µM (inactive) in assay [3]; > 7.26 µM (inactive) in assay [4]; > 10 µM (inactive) in assay [5]. Besides, the GI50 in assay [6] was > 10 µM (inactive); in assay [7], > 10 µM (inactive); in assay [8], > 10 µM (inactive); in assay [9] it was > 8.79 µM (inactive); in assay [10], > 10 µM (inactive); in assay [11] it was 7.98 µM (inactive). Also, the GI50 in assay [20] is > 10 µM (inactive); in assay [12] it was > 4.61 µM (inactive); in assay [13] it was > 6.4 µM (inactive); in assay [14] it was > 10 µM (inactive); in [15], > 10 µM (inactive); in [17] it was 2.51 µM (inactive). Also, in assay [18], the GI50 was > 5.3 µM (inactive).

For `Oc1cccc(-c2cc(=S)ss2)c1`, the GI50 is 19.7 µM (inactive) in assay [1]; 14.9 µM (inactive) in assay [2]; 17.6 µM (inactive) in assay [19]; 17.1 µM (inactive) in assay [3]; 18.6 µM (inactive) in [4]; 24.7 µM (inactive) in assay [5]. The GI50 in [7] is 14.4 µM (inactive); in [8] it was 17.5 µM (inactive); in assay [9] it was 18 µM (inactive); in assay [10] it was 18.5 µM (inactive); in assay [11], 17.9 µM (inactive); in assay [12], 17.6 µM (inactive). For the same molecule, the GI50 is 18.5 µM (inactive) in [13]; 18.5 µM (inactive) in assay [14]; 14.4 µM (inactive) in assay [15]; 16.7 µM (inactive) in assay [16]; 8.57 µM (inactive) in [17]; 17.7 µM (inactive) in [18].

On to `C/C(=C\COP(=O)(O)CP(=O)(O)O)CC/C=C(\C)CNc1ccccc1`, for which the GI50 in assay [1], in assay [2], in assay [19], in [3], in assay [5] and in [6] was > 100 µM (inactive) throughout. For the same molecule, the GI50 in assay [7], in [8], in [9], in assay [10], in assay [11] and in assay [13] was > 100 µM (inactive) in each case. Also, the GI50 in assay [14] was > 100 µM (inactive); in assay [15], > 100 µM (inactive); in assay [16] it was 14.6 µM (inactive); in assay [17], > 100 µM (inactive); in assay [18], > 100 µM (inactive).
